Source: ChEMBL document CHEMBL1154649, “Anti-HBV agents. Part 3: preliminary structure-activity relationships of tetra-acylalisol A derivatives as potent hepatitis B virus inhibitors” (Bioorg Med Chem Lett, 2009)
pIC50: −log10 of the molar value.

Experiments:
[1] = Selectivity index, ratio of CC50 for human HepG2(2.2.15) cells to IC50 for HBV surface antigen secretion; type: functional
[2] = Selectivity index, ratio of CC50 for human HepG2(2.2.15) cells to IC50 for HBV early antigen secretion; type: functional
Hepatitis B virus [3] = test: Antiviral activity against HBV assessed as inhibition of viral early antigen secretion; type: functional, organism-based
[4] = Cytotoxicity against human HepG2(2.2.15) cells; type: cell-based
Hepatitis B virus [5] = test: Antiviral activity against HBV assessed as inhibition of viral surface antigen secretion; type: functional, organism-based

Compound	Ratio CC50/IC50 [1]	Ratio CC50/IC50 [2]	pIC50 (Hepatitis B virus [3])	CC50 [4] [µM]	pIC50 (Hepatitis B virus [5])
C[C@H](C[C@H](O[Si](C)(C)C)[C@@H](O[Si](C)(C)C)C(C)(C)O[Si](C)(C)C)C1=C2C[C@H](O[Si](C)(C)C)[C@H]3[C@@]4(C)CCC(=O)C(C)(C)[C@@H]4CC[C@]3(C)[C@@]2(C)CC1	2.5	<1	< 4.29	51	4.70
COCC(=O)OC(C)(C)[C@H](OC(C)=O)[C@H](C[C@@H](C)C1=C2C[C@H](OC(C)=O)[C@H]3[C@@]4(C)CCC(=O)C(C)(C)[C@@H]4CC[C@]3(C)[C@@]2(C)CC1)OC(C)=O	209	77	4.92	920	5.36
CCOCC(=O)OC(C)(C)[C@H](OC(C)=O)[C@H](C[C@@H](C)C1=C2C[C@H](OC(C)=O)[C@H]3[C@@]4(C)CCC(=O)C(C)(C)[C@@H]4CC[C@]3(C)[C@@]2(C)CC1)OC(C)=O	>200	>156	4.74	> 2800	4.85
CCC(=O)O[C@@H](C[C@@H](C)C1=C2C[C@H](OC(=O)CC)[C@H]3[C@@]4(C)CCC(=O)C(C)(C)[C@@H]4CC[C@]3(C)[C@@]2(C)CC1)[C@@H](OC(=O)CC)C(C)(C)OC(C)=O	>3.7	>20	4.07	> 1700	3.34
CC(=O)OC(C)(C)[C@H](OC(=O)c1ccccc1)[C@H](C[C@@H](C)C1=C2C[C@H](OC(=O)c3ccccc3)[C@H]3[C@@]4(C)CCC(=O)C(C)(C)[C@@H]4CC[C@]3(C)[C@@]2(C)CC1)OC(=O)c1ccccc1	–	–	< 2.77	> 1700	< 2.77
CC(=O)O[C@@H](C[C@@H](C)[C@]12CC[C@@]3(C)[C@@]1(C[C@H](OC(C)=O)[C@H]1[C@@]4(C)CCC(=O)C(C)(C)[C@@H]4CC[C@@]13C)O2)[C@@H](OC(C)=O)C(C)(C)OC(C)=O	>87	>66	4.21	> 4000	4.34
CCC(=O)O[C@@H](C[C@@H](C)[C@]12CC[C@@]3(C)[C@@]1(C[C@H](OC(=O)CC)[C@H]1[C@@]4(C)CCC(=O)C(C)(C)[C@@H]4CC[C@@]13C)O2)[C@@H](OC(=O)CC)C(C)(C)OC(=O)CC	–	>1.7	2.89	> 2200	< 2.66
C[C@H](C[C@H](OC(=O)c1ccccc1)[C@@H](OC(=O)c1ccccc1)C(C)(C)OC(=O)c1ccccc1)[C@]12CC[C@@]3(C)[C@@]1(C[C@H](OC(=O)c1ccccc1)[C@H]1[C@@]4(C)CCC(=O)C(C)(C)[C@@H]4CC[C@@]13C)O2	–	>1.5	2.96	> 1700	< 2.77
CC(=O)OC1=CC[C@@]2(C)[C@@H](CC[C@@]3(C)[C@H]2[C@@H](OC(C)=O)CC2=C([C@H](C)C[C@H](OC(C)=O)[C@@H](OC(C)=O)C(C)(C)OC(C)=O)CC[C@@]23C)C1(C)C	–	>7.5	3.55	> 2100	< 2.68
Nc1ccn([C@@H]2CS[C@H](CO)O2)c(=O)n1 [LAMIVUDINE]	2.7	1.6	1.66	35000	1.89
